The source of these data is ChEMBL document CHEMBL4483862, “Open-source discovery of chemical leads for next-generation chemoprotective antimalarials” (2018).

pIC50: −log10 of the molar value.

The subject of the assay is Plasmodium berghei. The experiment in a line: Luciferase/luciferin-expressing antifolate-resistant parasites were used to infect a culture of HepG2 cells that were pre-incubated with compounds. Infected hepatocytes emit light due to the luciferase reaction. Assay results are presented as the percent inhibition of light emission compared to control. […]. Type of assay: functional. Conditions: sporozoite; for pIC50: read-out: LUCIFERASE INFECTION ASSAY - IC50; for IC90: read-out: LUCIFERASE INFECTION ASSAY - IC90.

By pIC50 is commonly meant the IC50 on a negative log10 scale, so that one unit is a factor of ten. As usually defined, the IC90 is the concentration needed for an effect of 90%. As to `CCC(=O)c1ccc(OCCCCn2cnc3ccccc32)cc1`, the pIC50 was under 5.00 and the IC90 is over 10 µM.
On to `Cc1c(C(=O)Nc2nc(CN3CCCC(C)C3)cs2)oc2ccc(Cl)cc12` (centres undefined), for which the pIC50 is under 5.00 and the IC90 was over 10 µM.
In the same order, the values of `Cc1cc(O)c(CN2CCN(C(=O)C34CC5CC(CC(C5)C3)C4)CC2)cc1C` are under 5.00 and over 10 µM.
For `CC(c1ccccc1)N(C)C(=O)c1nn(-c2ccccc2)c2c1CCC2` (centres undefined) the same measures were under 5.00 and over 10 µM.
For `COc1ccc(NC(=O)c2ccc3c(c2)C(=O)N(c2ccccc2Cl)C3=O)cn1` the same measures were under 5.00 and over 10 µM.
In the case of `Cc1ccc(Nc2nc(C(F)(F)F)nc3ccccc23)cc1S(=O)(=O)N(C)C`, the pIC50 was under 5.00 and the IC90 is over 10 µM.
For the compound `O=C1CN(C(=O)CNC(c2ccccc2)c2cccs2)c2ccccc2N1` (centres undefined), the pIC50 was under 5.00 and the IC90 was over 10 µM.
For `CN(C)CCOCCOc1c(Cl)cc(Cl)cc1Cl`, the pIC50 was under 5.00 and the IC90 is over 10 µM.
In the same order, the values of `Cc1nc2sccc2c(=O)n1NC(=O)c1ccc2ccccc2n1` are under 5.00 and over 10 µM.
For `Cc1nn(-c2ccccc2)c(C)c1C(=O)C(=O)NC(C)c1ccc(S(N)(=O)=O)cc1` (centres undefined) the same measures were under 5.00 and over 10 µM.
In the case of `CC1(c2ccco2)NC(=O)N(NC(=O)c2ccc3ccccc3n2)C1=O` (centres undefined), the pIC50 was under 5.00 and the IC90 was over 10 µM.
In the case of `O=C(CCSc1n[nH]c(=O)n1C1CC1)Nc1ccccc1`, the pIC50 was under 5.00 and the IC90 was over 10 µM.
In the case of `CCOC(=O)C1SC(C(C#N)c2ccccn2)=NC1(c1ccc(C)cc1)C(F)(F)F` (centres undefined), the pIC50 is under 5.00 and the IC90 was over 10 µM.
Take `CCCOc1c(Cl)cc(C(=O)N2CCN(C)c3nc4ccccc4nc32)cc1OCC`: the pIC50 is under 5.00 and the IC90 is over 10 µM.
In the case of `CC(C)Cn1c(N)c(C(=O)CSc2nnc(COc3ccccc3Cl)o2)c(=O)n(C)c1=O`, the negative-log IC50 (pIC50) is 5.48 and the IC90 was found to be 3.85 µM.
Take `CC(CNC(=O)C1CCN(S(=O)(=O)c2cccs2)CC1)c1nc2ccccc2n1C(F)F` (centres undefined): the pIC50 was under 5.00 and the IC90 was over 10 µM.
In the same order, the values of `CCOc1cc(CN(CC)CC(=O)Nc2c(F)cccc2F)ccc1OCc1cccs1` are under 5.00 and over 10 µM.
On to `CC(CO)NCCOCCOc1ccc(Cl)cc1Cc1ccccc1` (centres undefined), for which the pIC50 is under 5.00 and the IC90 is over 10 µM.
On to `Cc1nc(-c2ccc(CNC(=O)COc3ccccc3-c3ccccc3)o2)cs1`, for which the pIC50 was under 5.00 and the IC90 is over 10 µM.
Turning to `CCOC(=O)c1cnn(-c2ccc(C(=O)N(Cc3ccc(F)cc3)C3CC3)cc2)c1C`, the pIC50 is under 5.00 and the IC90 is over 10 µM.
As to `Cc1nn(C)c2nc(C3CC3)cc(C(=O)Nc3ccccc3C(=O)NC(C)c3ccccc3)c12` (centres undefined), the pIC50 is 5.05 and the IC90 is over 10 µM.
For the compound `O=C(CSc1nnc(Nc2ccccc2)s1)Nc1ccccc1N1CCCC1`, the pIC50 is under 5.00 and the IC90 is over 10 µM.
For `CCOC(=O)c1sc2nc(C)nc(N3CC=C(c4c[nH]c5ncccc45)CC3)c2c1C`, the pIC50 is under 5.00 and the 90% effect concentration (IC90) was over 10 µM.
Turning to `O=C(c1ccc(N2CCCC2=O)cc1)N1CCN(C2CCS(=O)(=O)C2)CC1` (centres undefined), the pIC50 was under 5.00 and the IC90 is over 10 µM.
With `CCOc1cc2c(cc1CN(Cc1nc(=O)c3cc(-c4ccccc4)sc3[nH]1)Cc1nc(=O)c3cc(-c4ccccc4)sc3[nH]1)OC(C)C2` (centres undefined), the pIC50 was under 5.00 and the IC90 is over 10 µM.
For the compound `COC(=O)Cc1cc(=O)nc(SCC(=O)c2cc(C)n(-c3ccc(C(C)C)cc3)c2C)[nH]1`, the pIC50 is under 5.00 and the IC90 was over 10 µM.
For the compound `c1ccc(-c2csc3nc(CN4CCOCC4)nc(NCc4cnn(-c5ccccc5)c4)c23)cc1`, the pIC50 is under 5.00 and the IC90 is over 10 µM.
For `CCN(CC(=O)NC(C)(C)C)C(=O)c1cc(OC)c(Br)c(OC)c1` the same measures were under 5.00 and over 10 µM.
For the compound `CCOC(=O)c1sc2cccc(F)c2c1CSc1nc2sccc2c(=O)n1C`, the pIC50 is 5.39 and the IC90 came out at 9.27 µM.
For `COc1ccc(NC(=O)C(C)N2CCN(CCc3ccccc3)CC2)cc1Cl` (centres undefined) the same measures were under 5.00 and over 10 µM.
For `Cc1nc(COc2ccc(F)cc2)sc1C(=O)Nc1nc2c(s1)CC(C)CC2` (centres undefined), the pIC50 is under 5.00 and the IC90 is over 10 µM.
For `C1CCN(Cc2nc(NC3CCN(C4CC4)CC3)c3c4c(sc3n2)CCCC4)CC1` the same measures were under 5.00 and over 10 µM.
`COc1ccc(OC)c(C(C)Nc2ncnc3sccc23)c1` (centres undefined): the pIC50 was 5.37 and the IC90 was over 10 µM.
Consider `Cc1cccc(N2CCN(C(=O)/C=C/c3cnn(-c4ccccc4)c3)CC2)c1`, for which the pIC50 is under 5.00 and the IC90 is over 10 µM.
Consider `CC1CCN(CCCCOc2cccc(Cl)c2)CC1`, for which the pIC50 is under 5.00 and the IC90 is over 10 µM.
On to `N#Cc1cccc(NC(=O)c2cc(-c3cccnc3)nc3c2cnn3Cc2ccccc2Cl)c1`, for which the pIC50 is under 5.00 and the IC90 is over 10 µM.
For `COC(=O)c1ccc2c(=O)n(-c3ccccc3)c(SC3CCCCC3=O)nc2c1` (centres undefined), the negative logarithm of the IC50 (pIC50) is under 5.00 and the IC90 is over 10 µM.
`CN(Cc1ccccc1N1CCCCC1)C(=O)c1ccc(NC(=O)C2CC2)cc1`: the negative logarithm of the IC50 (pIC50) was 5.54 and the IC90 is 3.37 µM.
In the case of `Cc1oc(-n2cccc2)c(C#N)c1C(=O)Nc1nc(-c2ccccn2)cs1`, the pIC50 is 5.03 and the IC90 was over 10 µM.
As for `Cc1ccc(NS(=O)(=O)c2ccc(C(=O)NNC(=O)COc3ccc(C#N)cc3)cc2)cc1`, the pIC50 is under 5.00 and the IC90 was over 10 µM.
Consider `CC(C)(C)OC(=O)NCc1ccc(C(=O)NNC(=O)c2ccccc2O)cc1`, for which the pIC50 is under 5.00 and the IC90 was over 10 µM.
In the same order, the values of `CCN(CC(=O)Nc1ccc2c(c1)OCCO2)C(=O)CCCc1nc2ccccc2s1` are under 5.00 and over 10 µM.
With `COc1ccc(C(C)(C)C)cc1NC(=O)c1sc2nc3n(c(=O)c2c1C)CCC3`, the negative logarithm of the IC50 (pIC50) was under 5.00 and the IC90 was over 10 µM.
For the compound `O=C(CN1CCC(NC(=O)c2cn(-c3ccccc3)nc2-c2cccs2)CC1)Nc1ccccc1`, the pIC50 is under 5.00 and the IC90 was over 10 µM.
For `Cc1ccc(NC(=S)N/N=C2\C(=O)Nc3c(C)cc(C)cc32)c(C)c1`, the negative-log IC50 (pIC50) is 5.52 and the IC90 was 3.68 µM.
In the same order, the values of `CC(Oc1ccccc1[N+](=O)[O-])C(=O)N(c1nccs1)C1CCCCC1` (centres undefined) are under 5.00 and over 10 µM.
On to `O=C(Nc1cccc(S(=O)(=O)NC2=NCCC2)c1)c1ccc2nccnc2c1`, for which the pIC50 was under 5.00 and the IC90 was over 10 µM.
In the case of `Cn1cc(Br)cc1C(=O)Nc1ccc2c(c1)OCCO2`, the pIC50 was under 5.00 and the IC90 was over 10 µM.
As to `CCNC(=O)Cn1c(=O)/c(=C\c2ccccc2Cl)s/c1=C\C(=O)c1ccccc1C`, the pIC50 is under 5.00 and the concentration for an effect of 90% (IC90) is over 10 µM.
For `O=C(c1ccco1)N1CCC(Nc2nc(-c3cccs3)nc3sc4c(c23)CCCC4)CC1` the same measures were under 5.00 and over 10 µM.
On to `C/C=C/c1ccc(OCC(=O)NCc2ccc(S(N)(=O)=O)cc2)c(OC)c1`, for which the pIC50 is under 5.00 and the IC90 was over 10 µM.
For `O=C(Nc1nc2c(s1)CCCC2)c1ccc(Nc2ccccc2)c([N+](=O)[O-])c1` the same measures were under 5.00 and over 10 µM.
For `Cc1ccc(-c2c(C)sc3[nH]c(CN(Cc4nc(=O)c5c(-c6ccc(C)cc6)c(C)sc5[nH]4)Cc4ccccc4CN4CCCC4)nc(=O)c23)cc1` the same measures were under 5.00 and over 10 µM.
For the compound `COc1cc(C(=O)N(C)Cc2ccccc2N2CCOCC2)cc(OC)c1OC`, the pIC50 was under 5.00 and the concentration for an effect of 90% (IC90) was over 10 µM.
`CCOC(=O)/C(=C\c1ccc(Cl)c([N+](=O)[O-])c1)C1=Nn2c(nnc2-c2cccs2)SC1`: the pIC50 is under 5.00 and the IC90 is over 10 µM.
`Cc1nn(C)c(Cl)c1C=C(C(=O)NCCc1ccccc1)C(=O)NCCc1ccccc1`: the pIC50 was under 5.00 and the IC90 was over 10 µM.
On to `N#CC1=C2C=CC=CN2C(c2ccccc2)(C(F)(F)F)N=C1SCC(=O)Nc1ccc(Cl)c(Cl)c1` (centres undefined), for which the pIC50 is under 5.00 and the IC90 is over 10 µM.
As for `O=C(CN1CCC(n2c(=O)[nH]c3ccccc32)CC1)NCCC1=CCCCC1`, the pIC50 was under 5.00 and the IC90 was over 10 µM.
For the compound `O=C(Nc1nc2c(s1)CCCC2)c1c[nH]c(=S)n1-c1ccccc1`, the negative logarithm of the IC50 (pIC50) is under 5.00 and the IC90 is over 10 µM.
For `Cc1[nH]c(=O)[nH]c(=O)c1C(=O)/C=C/c1cn(-c2ccccc2)nc1-c1cc2ccccc2o1` the same measures were under 5.00 and over 10 µM.
`Cc1ccc(-c2nnc(SCC(=O)Nc3ccccc3C(=O)NCc3ccccc3)[nH]2)cc1`: the pIC50 is under 5.00 and the IC90 was over 10 µM.
In the case of `COc1cc(OC)cc(C(=O)NNC(=O)CCC(=O)c2ccc(Cl)s2)c1`, the pIC50 was under 5.00 and the IC90 is over 10 µM.
Take `NS(=O)(=O)c1ccc(N2CCOCC2)c(C(=O)NCCOc2ccc3ccccc3c2)c1`: the pIC50 is under 5.00 and the 90% effect concentration (IC90) was over 10 µM.
With `CC(c1nc(=O)c2c(-c3ccccc3)csc2[nH]1)N(C)Cc1ccccc1N1CCCC1` (centres undefined), the pIC50 is under 5.00 and the IC90 was over 10 µM.
As to `O=C(Nc1ccc2c(c1)nc1n2CCCCC1)C1CC=CCC1` (centres undefined), the pIC50 was under 5.00 and the IC90 was over 10 µM.
Regarding `Cc1nn(-c2ccccc2)c(Oc2ccc(Br)cc2)c1CNC1CCC(O)CC1` (centres undefined), the pIC50 is under 5.00 and the IC90 was over 10 µM.
As for `O=C(NCCN1C(=O)S/C(=C\c2ccccc2Cl)C1=O)c1ccc(Br)o1`, the pIC50 is under 5.00 and the IC90 was over 10 µM.
